From patent US9193736B2, “PDE 10a inhibitors for the treatment of type II diabetes” (Janssen Pharmaceutica, NV, priority 2013, dated 2015)
Structures can show the parent of a compound that is named as a salt. Residues, ends and D or L forms follow the SMILES beside them. *: point of attachment. X1 = O=C(c1ccc(-c2c(C#Cc3ccc4ccccc4n3)nc3c(N4CCOCC4)ccnn23)cc1)*

Columns and labels:
[1] = biological target: Human recombinant PDE10A2 (Homo sapiens (Human), UniProt Q9Y233); assay: In vitro hPDE10a: human recombinant PDE10A2 scintillation proximity assay, IC50; format: biochemical; settings: human recombinant PDE10A2, SPA, 60 nM cAMP; read-out: hPDE10a2 IC50
Procedure: Cells were harvested and the phosphodiesterase protein was purified by metal chelate chromatography on Ni-sepharose 6FF. The affinity of the compounds of Formula (I) for phophodiesterases (PDE) was measured by a scintillation proximity assay (SPA). PDE Yttrium Silicate SPA beads allow PDE activity to be measured by direct binding of the primary phosphate groups of non-cyclic AMP or GMP to the beads via a complex iron chelation mechanism. The amount of bound tritiated product ([^3H]-AMP) is measured by liquid scintillation counting. The compounds were dissolved and diluted in 100% DMSO in polystyrene plates to a concentration of 100-fold the final concentration in the assay. […] After incubation, the reaction was stopped with 20 μL of stop solution, consisting of PDE SPA beads (17.8 mg beads/mL in 18 mM zinc sulphate). […] To measure the low control, no enzyme was added to the reaction mixture. Data were calculated as the percentage of inhibition of total activity measured in the absence of test compound (% control). […] For compounds tested more than once, the data points were aggregated.

[2] = biological target: Rat recombinant PDE10a (rPDE10a) (Rattus norvegicus (Rat), UniProt Q9QYJ6); assay: In vitro assay PDE10a: rat recombinant PDE10a SPA with 3H-cAMP substrate, IC50; format: biochemical; settings: 60 nM cAMP, read-out: rPDE10a2 IC50
Procedure: In Vitro Assay PDE10a Rat recombinant PDE10a (rPDE10a) was expressed in Sf9 cells using a recombinant rPDE10a baculovirus construct. Cells were harvested after 48 h of infection and the rPDE10a protein was purified by metal chelate chromatography on Ni-sepharose 6FF. Tested compounds were dissolved and diluted in 100% DMSO to a concentration 100 fold of the final concentration in the assay. […] The reaction was incubated for 60 min at rt. After incubation, the reaction was stopped with 20 μL of 17.8 mg/mL PDE SPA beads. […] For blank values the enzyme was omitted from the reaction and replaced by incubation buffer.

Chain of Human recombinant PDE10A2 (Q9Y233 267-1055): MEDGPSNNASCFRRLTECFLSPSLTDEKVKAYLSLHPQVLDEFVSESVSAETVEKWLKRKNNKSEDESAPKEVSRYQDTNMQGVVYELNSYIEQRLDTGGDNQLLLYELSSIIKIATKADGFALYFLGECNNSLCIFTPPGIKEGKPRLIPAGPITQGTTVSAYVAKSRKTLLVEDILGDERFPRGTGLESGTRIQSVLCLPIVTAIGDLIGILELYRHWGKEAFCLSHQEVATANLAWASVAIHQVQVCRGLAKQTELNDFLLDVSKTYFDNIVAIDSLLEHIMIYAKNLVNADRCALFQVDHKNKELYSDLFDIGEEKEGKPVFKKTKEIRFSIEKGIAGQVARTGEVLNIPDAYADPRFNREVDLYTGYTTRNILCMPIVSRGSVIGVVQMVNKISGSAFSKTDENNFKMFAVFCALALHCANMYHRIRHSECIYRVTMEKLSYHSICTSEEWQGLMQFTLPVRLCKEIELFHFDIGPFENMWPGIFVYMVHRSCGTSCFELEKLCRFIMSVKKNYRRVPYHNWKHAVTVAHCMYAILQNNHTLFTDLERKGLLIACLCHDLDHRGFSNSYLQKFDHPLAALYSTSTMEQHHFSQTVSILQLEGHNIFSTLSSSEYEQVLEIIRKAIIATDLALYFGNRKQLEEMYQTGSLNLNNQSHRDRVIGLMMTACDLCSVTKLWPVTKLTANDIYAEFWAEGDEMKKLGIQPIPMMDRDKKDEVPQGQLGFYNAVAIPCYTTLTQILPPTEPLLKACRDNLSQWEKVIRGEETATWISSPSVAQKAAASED
Chain of Rat recombinant PDE10a (rPDE10a) (Q9QYJ6 whole entry): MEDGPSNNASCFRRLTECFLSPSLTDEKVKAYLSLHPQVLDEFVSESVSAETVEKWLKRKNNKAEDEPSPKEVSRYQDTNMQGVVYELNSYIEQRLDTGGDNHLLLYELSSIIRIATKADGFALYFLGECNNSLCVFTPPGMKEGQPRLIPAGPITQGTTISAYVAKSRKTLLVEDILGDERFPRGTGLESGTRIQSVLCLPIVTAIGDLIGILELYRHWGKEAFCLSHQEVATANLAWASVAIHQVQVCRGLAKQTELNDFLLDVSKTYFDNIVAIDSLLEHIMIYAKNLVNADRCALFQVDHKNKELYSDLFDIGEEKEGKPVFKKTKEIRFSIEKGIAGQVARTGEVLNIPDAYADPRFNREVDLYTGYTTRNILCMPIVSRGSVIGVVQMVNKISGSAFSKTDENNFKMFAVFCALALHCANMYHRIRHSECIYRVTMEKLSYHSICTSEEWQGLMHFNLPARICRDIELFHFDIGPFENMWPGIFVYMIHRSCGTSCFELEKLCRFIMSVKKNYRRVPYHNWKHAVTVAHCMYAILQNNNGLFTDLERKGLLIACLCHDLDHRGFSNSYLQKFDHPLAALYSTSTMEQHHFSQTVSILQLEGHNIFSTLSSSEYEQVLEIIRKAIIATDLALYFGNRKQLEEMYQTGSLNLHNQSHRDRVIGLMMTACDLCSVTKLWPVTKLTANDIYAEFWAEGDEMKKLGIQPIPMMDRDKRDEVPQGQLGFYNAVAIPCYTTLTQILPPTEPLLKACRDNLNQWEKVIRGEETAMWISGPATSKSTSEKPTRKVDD

Row | SMILES | IC50 [1] | IC50 [2]
1 | O=C(O)c1cccc2nc(/C=C/c3cn4nccc(N5CCOCC5)c4n3)ccc12 [Cpd 115, 2-[(E)-2-(8-Morpholin-4-ylimidazo[1,2-b]pyridazin-2-yl)ethenyl]quinoline-5-carboxylic acid] | 1 nM | 1 nM
2 | CN1CC=C(c2ccc(-c3c(COc4ccc5ccccc5n4)nc4c(N5CCOCC5)ccnn34)cn2)CC1 [Cpd 10, 4-(3-(1′-methyl-1′,2′,3′,6′-tetrahydro-[2,4′-bipyridin]-5-yl)-2-((quinolin-2-yloxy)methyl)imidazo[1,2-b]pyridazin-8-yl)morpholine] | 43 nM | 17 nM
3 | Cc1ccc(-c2c(COc3ccc4ccccc4n3)nc3c(N4CCOCC4)ccnn23)cn1 [Cpd 1, 4-(3-(6-methylpyridin-3-yl)-2-((quinolin-2-yloxy)methyl)imidazo[1,2-b]pyridazin-8-yl)morpholine methane sulfonic acid] | 115 nM | 46 nM
4 | O=C(O)CCC(=O)N1CCN(c2c(/C=C/c3ccc4ccccc4n3)nc3c(N4CCOCC4)ccnn23)CC1 [compound 155, (E)-4-(4-(8-Morpholino-2-(2-(quinolin-2-yl)vinyl)imidazo[1,2-b]pyridazin-3-yl)piperazin-1-yl)-4-oxobutanoic acid] | 5 nM | 3 nM
5 | COc1ccc(C#Cc2nc3c(N4CCOCC4)ccnn3c2-c2ccc(C(=O)O)cc2)nc1 [Cpd 110, 4-(2-((5-Methoxypyridin-2-yl)ethynyl)-8-morpholinoimidazo[1,2-b]pyridazin-3-yl)benzoic acid] | 2 nM | 2 nM
6 | O=C(O)c1ccc(-c2c(C#Cc3cccc(C(F)(F)F)n3)nc3c(N4CCOCC4)ccnn23)cc1 [Cpd 111, 4-(8-Morpholino-2-((6-(trifluoromethyl)pyridin-2-yl)ethynyl)imidazo[1,2-b]pyridazin-3-yl)benzoic acid] | ~18 nM | 17 nM
7 | O=C(O)c1cc(/C=C/c2cn3nc(Cl)cc(N4CCOCC4)c3n2)nc2ccccc12 [Cpd 126, 2-[(E)-2-(6-Chloro-8-morpholin-4-ylimidazo[1,2-b]pyridazin-2-yl)ethenyl]quinoline-4-carboxylic acid] | 2 nM | 1 nM
8 | CN1CCN(c2ccc(-c3c(CN(C)c4ccc5ccccc5n4)nc4c(N5CCOCC5)ccnn34)cn2)CC1 [Cpd 15, N-Methyl-N-((3-(6-(4-methylpiperazin-1-yl)pyridin-3-yl)-8-morpholinoimidazo[1,2-b]pyridazin-2-yl)methyl)quinolin-2-amine trifluoroacetic acid salt] | 676 nM | 269 nM
9 | O=c1[nH]nc(-c2ccc(-c3c(/C=C/c4ccc5ccccc5n4)nc4c(N5CCOCC5)ccnn34)cc2F)[nH]1 [Cpd 162, (E)-5-(2-Fluoro-4-(8-morpholino-2-(2-(quinolin-2-yl)vinyl)imidazo[1,2-b]pyridazin-3-yl)phenyl)-2H-1,2,4-triazol-3(4H)-one] | 9 nM | –
10 | O=C(O)C1CCN(c2ccc(-c3c([C@H]4C[C@@H](c5ccc6ccccc6n5)C4)nc4c(N5CCOCC5)ccnn34)cc2)CC1 [compound 166, 1-(4-(8-Morpholino-2-((1s,3s)-3-(quinolin-2-yl)cyclobutyl)imidazo[1,2-b]pyridazin-3-yl)phenyl)piperidine-4-carboxylic acid] | 93 nM | –
11 | O=c1ncn(-c2ccc(-c3c(/C=C/c4ccc5ccccc5n4)nc4c(N5CCOCC5)ccnn34)cc2F)[nH]1 [Cpd 158, (E)-1-(2-Fluoro-4-(8-morpholino-2-(2-(quinolin-2-yl)vinyl)imidazo[1,2-b]pyridazin-3-yl)phenyl)-1,2-dihydro-1,2,4-triazol-3-one] | 5 nM | –
12 | c1ccc2nc(C3CC3c3cn4nccc(N5CCOCC5)c4n3)ccc2c1 (stereo not shown) [Cpd 161, 2-[2-(8-Morpholin-4-ylimidazo[1,2-b]pyridazin-2-yl)cyclopropyl]quinoline] | 4 nM | –
13 | CC(C)C[C@H](NC(=O)[C@H](C)N)C(=O)N[C@@H](C)C(=O)N[C@@H](CCCCNC(=O)c1ccc(-c2c(C#Cc3ccc4ccccc4n3)nc3c(N4CCOCC4)ccnn23)cc1)C(N)=O [Cpd 178, N—((S)-6-amino-5-((S)-2-((S)-2-((S)-2-aminopropanamido)-4-methylpentanamido)propanamido)-6-oxohexyl)-4-(8-morpholino-2-(quinolin-2-ylethynyl)imidazo[1,2-b]pyridazin-3-yl)benzamide] (H-ALAK(X1)-NH2) | 11 nM | –
14 | Cn1nc(-c2ccc(-c3c(/C=C/c4ccc5ccccc5n4)nc4c(N5CCOCC5)ccnn34)cc2F)[nH]c1=O [Cpd 163, (E)-5-(2-Fluoro-4-(8-morpholino-2-(2-(quinolin-2-yl)vinyl)imidazo[1,2-b]pyridazin-3-yl)phenyl)-2-methyl-2H-1,2,4-triazol-3(4H)-one] | 12 nM | –
15 | CC(C)(C(=O)O)c1ccc(-c2c([C@H]3C[C@H](c4ccc5ccccc5n4)C3)nc3c(N4CCOCC4)ccnn23)cc1 [Cpd 171, 2-Methyl-2-(4-(8-morpholino-2-((1R,3R)-3-(quinolin-2-yl)cyclobutyl)imidazo[1,2-b]pyridazin-3-yl)phenyl)propanoic acid] | 2 nM | –
16 | O=C(O)c1ccc(-c2c([C@H]3C[C@@H](c4ccc5ccccc5n4)C3)nc3c(N4CCOCC4)ccnn23)cc1 [compound 167, 4-(8-Morpholino-2-((1s,3s)-3-(quinolin-2-yl)cyclobutyl)imidazo[1,2-b]pyridazin-3-yl)benzoic acid trifluoroacetic acid salt] | 13 nM | –
17 | NC(=O)[C@@H](N)CCCCNC(=O)c1ccc(-c2c(C#Cc3ccc4ccccc4n3)nc3c(N4CCOCC4)ccnn23)cc1 [Cpd 180, (S)—N-(5,6-diamino-6-oxohexyl)-4-(8-morpholino-2-(quinolin-2-ylethynyl)imidazo[1,2-b]pyridazin-3-yl)benzamide] | 5 nM | –
18 | O=C(O)CC1(c2ccc(-c3c([C@H]4C[C@H](c5ccc6ccccc6n5)C4)nc4c(N5CCOCC5)ccnn34)cc2)COC1 [Cpd 174, 2-(3-(4-(8-Morpholino-2-((1R,3R)-3-(quinolin-2-yl)cyclobutyl)imidazo[1,2-b]pyridazin-3-yl)phenyl)oxetan-3-yl)acetic acid] | 1 nM | –
19 | NCC(=O)N[C@@H](CCCCNC(=O)c1ccc(-c2c(C#Cc3ccc4ccccc4n3)nc3c(N4CCOCC4)ccnn23)cc1)C(N)=O [Cpd 181, (S)—N-(6-amino-5-(2-aminoacetamido)-6-oxohexyl)-4-(8-morpholino-2-(quinolin-2-ylethynyl)imidazo[1,2-b]pyridazin-3-yl)benzamide] | 6 nM | –
20 | O=C(O)[C@H]1C[C@@H]1c1ccc(-c2c([C@H]3C[C@H](c4ccc5ccccc5n4)C3)nc3c(N4CCOCC4)ccnn23)cc1 [Cpd 170, (1R,2S)-2-(4-(8-Morpholino-2-((1R,3S)-3-(quinolin-2-yl)cyclobutyl)imidazo[1,2-b]pyridazin-3-yl)phenyl)cyclopropanecarboxylic acid] | 1 nM | –
21 | O=C(O)c1ccc(-c2c([C@H]3C[C@H](c4ccc5ccccc5n4)C3)nc3c(N4CCOCC4)cc(Cl)nn23)cc1 [compound 160, 4-(6-Chloro-8-morpholino-2-((1r,3r)-3-(quinolin-2-yl)cyclobutyl)imidazo[1,2-b]pyridazin-3-yl)benzoic acid trifluoroacetic acid salt] | 1 nM | –
22 | C[C@H](N)C(=O)N[C@@H](CCCCNC(=O)c1ccc(-c2c(C#Cc3ccc4ccccc4n3)nc3c(N4CCOCC4)ccnn23)cc1)C(N)=O [Cpd 179, N—((S)-6-amino-5-((S)-2-aminopropanamido)-6-oxohexyl)-4-(8-morpholino-2-(quinolin-2-ylethynyl)imidazo[1,2-b]pyridazin-3-yl)benzamide] | 5 nM | –
23 | O=C(O)c1ccc(-c2c([C@@H]3C[C@@H]3c3ccc4ccccc4n3)nc3c(N4CCOCC4)cc(Cl)nn23)cc1F [Cpd 165, 4-(6-Chloro-8-morpholino-2-((1R,2S)-2-(quinolin-2-yl)cyclopropyl)imidazo[1,2-b]pyridazin-3-yl)-2-fluorobenzoic acid trifluoroacetic acid salt] | 12 nM | –
24 | CC(C)(CC(=O)O)c1ccc(-c2c([C@H]3C[C@H](c4ccc5ccccc5n4)C3)nc3c(N4CCOCC4)ccnn23)cc1 [Cpd 172, 3-Methyl-3-{4-[8-morpholin-4-yl-2-(trans-3-quinolin-2-ylcyclobutyl)imidazo[1,2-b]pyridazin-3-yl]phenyl}butanoic acid] | 1 nM | –
25 | O=C(O)c1ccc(-c2c(/C=C/c3ccc4c(n3)CCCC4)nc3c(N4CCOCC4)ccnn23)cn1 [Cpd 107, (E)-5-(8-morpholino-2-(2-(5,6,7,8-tetrahydroquinolin-2-yl)vinyl)imidazo[1,2-b]pyridazin-3-yl)picolinic acid trifluoroacetic acid salt] | 12 nM | –
26 | CC(=O)c1ccc(-c2c(C#Cc3ccc4ccccc4n3)nc3c(N4CCOCC4)ccnn23)cc1 [Cpd 159, 1-(4-(8-Morpholino-2-(quinolin-2-ylethynyl)imidazo[1,2-b]pyridazin-3-yl)phenyl)ethanone] | 9 nM | –
